Earlier results, collected in patent US11311620B2, “Neoadjuvant therapy for bladder cancer” (PHOTOCURE ASA, priority 2016, dated 2022).

Legend:
MIBC = conditions: patients who had cystectomy; HAL-guided TUR prior to cystectomy; 268 consecutive patients, retrospective
NMIBC = conditions: patients with NMIBC
bladder cancer = conditions: neoadjuvant cisplatin-containing chemotherapy

Structure (SMILES) | 3-year overall survival (OS) (MIBC) | 3-year recurrence-free survival (RFS) (MIBC) | rate of residual tumor after TUR (NMIBC) | recurrence free survival (RFS) rates compared to white light TUR alone (NMIBC) | detection of papillary tumors and flat carcinoma-in-situ (CIS) lesions (NMIBC; compared to white light alone) | absolute improvement in survival at 5 years (bladder cancer)
CCCCCCOC(=O)CCC(=O)CN [HAL, n-hexyl 5-amino-4-oxo-pentanoate] | 65.0% | 69.8% | reduced the rate of residual tumor | superior recurrence free survival (RFS) rates | improved detection | –
N.N.[Cl][Pt][Cl] [cisplatin] | – | – | – | – | – | 5%
